Holding throughout (assay type): in vivo
Series [1] relates to male Wister rats. Kind of series: Effect on metabolism of amine in the brain. To be noted: 1 mg/kg s.c., 1 hour after dosing. How it is done:
Effect on metabolism of amine in the brain
Unfasted male Wister rats (weighing 180 to 220 g) were used. Peptide A or peptide B was subcutaneously given to the animal at a dose of 1 mg/kg, the head was irradiated with microwave 1 hour thereafter, and amine metabolite was extracted from the brain. First, removed tissues were homogenized with 1M formic acid and centrifuged at 20,000×g for 20 minutes, and the supernatant (1 ml) was shaken with 5 ml of ethyl acetate. The 3,4-dihydroxyphenylacetic acid (DOPAC), homovanillic acid (HVA) and 5-hydroxyindoleacetic acid (5-HIAA) in the ethyl acetate layer were analyzed by high-performance liquid chromatography under the following conditions. Chemcosorb, 5-ODS, 20 cm×4.6 mm I.D. was used for a separating column, and a mobile phase (0.1M KH2 PO4 (pH 5.0)-5 mM EDTA-2Na-5% acetonitrile) was passed through the column at a flow rate of 1 ml/min. The electrochemical detector was set to an oxidation potential of +0.8 V.

Series [2] concerns Male ddy mice. Kind of series: Effect on hyperlocomotion induced by thyrotropin releasing hormone (TRH). To be noted: s.c. How it is done: Effect on hyperlocomotion induced by thyrotropin releasing hormone (TRH)
Male ddy mice (weighing 18 to 24.5 g) were used. The mice were placed into a transparent acrylic resin cage (26×37×11 cm) installed on Animex meter. Before experiment, the mice were allowed to habituate for 2 hours in the cage to fully lower the activity of the mice. After the completion of habituation, peptide A, peptide B or a diluent (physiological saline containing 1 mg/ml of sodium hydrogencarbonate) serving as a control was subcutaneously given to the mice. Thirty minutes thereafter, 5 mg/kg of TRH was intraperitoneally given to the animals. The activity counts during the period of 60 minutes following the administration of TRH was measured. Student's t-test was resorted to for statistical treatment.

Another series concerns test animals. Kind of series: Induction of catalepsy in test animals.
Series [3] deals with male Wister rats. Kind of series: Effect on yawning behavior induced by apomorphine. The settings on record: s.c. How it is done:
Effect on yawning behavior
Male Wister rats (weighing 200 to 300 g) were used, with 10 rats in each group. The rat was placed into a plastics cage (17×24×12 cm) with a floor mat and was then habituated for 30 minutes. Peptide A, peptide B, CCK-8 or the above-mentioned diluent serving as a control was subcutaneously given to the animal. Thirty minutes thereafter, 0.03 mg/kg of apomorphine was subcutaneously given to the animal. The number of yawns induced by apomorphine was counted during a period of 30 minutes following administration of apomorphine. The test was conducted in a soundproof compartment for each animal. Wilcoxon rank-sum test was resorted to for statistical treatment.

The nature of series [4]: Induction of yawning behavior by the peptide itself. To be noted: yawning thought to be induced by a reduction in the amount of dopamine.
For series [5], the system named is male Wister rats. Kind of series: Effect on the fixed ratio responding in rats (FR20). To be noted: s.c., 15 min before a 20 min session, dose giving count 50 with control as 100. How it is done: Effect on the fixed ratio responding in rats
The test was conducted according to the method described in Ahlenius S. and Engel J., Eur. J. Pharm., Vol. 15, 187-192 (1971).
Male Wister rats (weighing 240 to 320 g) were placed into Skinner box (product of Bil-Medika Co., Ltd., Japan, adapted to give a feed when a lever within the box is pressed) and made to learn how to take the food. In this test, one feed was given to the rats when the lever was pressed 20 times, i.e., fixed ratio (FR) 20. The rats showing stable FR20 response were divided into groups each including four rats.
Physiological saline (containing 1 mM of sodium hydrogencarbonate) containing a specified amount of a test compound was subcutaneously given to the rats of one group in a volume of 0.1 ml/100 g. (Physiological saline containing the above-mentioned amount of sodium hydrogencarbonate only was given to the control group). Fifteen minutes after the administration, the test animals were placed in the Skinner box, and the number of times the animals took the feed for 20 minutes was counted. The dose at which the count gained by the group of animals was 50, namely, ED50 value, was determined, with the count gained by the control group calculated as 100. The same procedure as above was repeated with use of the other test compounds.

The subject of series [6] is Male ddy mice. Kind of series: Effect on climbing behavior induced by apomorphine (Pharmacological Test 7). The settings on record: control 9.8 ± 0.7. How it is done: Effect on climbing behavior induced by apomorphine
Male ddy mice (weighing 20 to 30 g) were used, with 10 mice in each group. Each mouse was placed into a cylindrical cage, 12 cm in diameter and 14 cm in height, made up of vertical rods of 2 mm in diameter spaced apart at a distance of 10 mm in a circular arrangement. The mouse was allowed to stand therein for 2 hours. Physiological saline containing a specified amount of a test compound (and 1 mM of sodium hydrogencarbonate) was subcutaneously given to one group of mice in a volume of 1 ml/10 g. (The same dose of saline only was given to a control group). […] The test was carried out in soundproof compartments.
0: All the four legs are on the floor.
2: At least three legs are on rods.
The other compounds were tested in the same manner as above. The test was carried out in soundproof compartments. Student's t-test was resorted to for satistical treatment.

Another series concerns Male ICR mice. Kind of series: Inhibitory effect on hyperlocomotion induced by administration of methylphenidate. To be noted: s.c. with methylphenidate 10 mg/kg s.c., 1 hour after administration, 50 with control as 100. How it is done: Inhibitory effect on hyperlocomotion induced by administration of methylphenidate
Male ICR mice (weighing 24 to 30 g) were divided into groups, each including 10 mice. To one group of mice were subcutaneously given 10 mg/kg of methylphenidate and 0.1 ml/10 g of a saline solution of a specified amount of a test compound and 1 mM of sodium hydrogencarbonate. One hour after the administration, the test animals were checked for hyperlocomotion, which was measured with use of a device for measuring locomotion of small animals (wherein the motion of an animal shifts the center of graavity of the device to actuate a microswitch for the measurement of the amount of motion, see Folia Pharmacologica Japonica, 74, 629-639 (1978). For a control group, the same procedure as above was repeated except that the saline solution given was free from any test compound. The concentration of the test compound at which the result achieved by the group of animals was 50, namely, ED50 value, was determined, with the measurement obtained by the control group calculated as 100. The other compounds were tested in the same manner as above.

Where a SMILES comes first, the peptide text is derived from it.

The record followed here is USRE32534E, “Peptides, process for preparing the same and psychodepressant compositions containing the same” (Amano Pharmaceutical Co., Ltd., priority 1982, dated 1987).

As for `CSCC[C@H](NC(=O)[C@H](Cc1ccc(OS(=O)(=O)O)cc1)NC(=O)[C@H](CC(=O)O)NC(=O)CCCC(=O)O)C(=O)NCC(=O)N[C@@H](Cc1c[nH]c2ccccc12)C(=O)N[C@@H](CCSC)C(=O)N[C@@H](CC(=O)O)C(=O)N[C@@H](Cc1ccccc1)C(N)=O` [Peptide A, Glt--Asp--Tyr(SO3 H)--Met--Gly--Trp--Met--Asp--Phe--NH2], in the series on male Wister rats [1], the “Increase of DOPAC content in hypothalamus” value is given as “about 60%”; the “Influence on content of metabolite (DOPAC, HVA, 5-HIAA) in frontal cortex, limbic forebrain, and striatum” value was “Neither of peptide A and peptide B was found to influence”. Further, the “Effect on TRH-induced hyperlocomotion (in words)” value in the series on Male ddy mice [2] is on record as “inhibit the hyperlocomotion induced by TRH”.

Take `CSCC[C@H](NC(=O)[C@H](Cc1ccc(OS(=O)(=O)O)cc1)NC(=O)[C@@H](N)CC(=O)O)C(=O)NCC(=O)N[C@@H](Cc1c[nH]c2ccccc12)C(=O)N[C@@H](CCSC)C(=O)N[C@@H](CC(=O)O)C(=O)N[C@@H](Cc1ccccc1)C(N)=O` [CCK-8, Asp--Tyr(SO3 H)--Met--Gly--Trp--Met--Asp--Phe--NH2]: the “Induction of catalepsy (side effect, in words)” value with test animals is recorded as “induces catalepsy”. In the series with male Wister rats [3], the “Effect on yawning behavior induced by apomorphine (in words)” value is “is not inhibited by CCK-8”. Moreover, the “Induction of yawning behavior (in words)” value in series [4] is “induces no yawning behavior whatsoever”.

Consider `CSCC[C@H](NC(=O)[C@H](Cc1ccc(OS(=O)(=O)O)cc1)NC(=O)CCCC(=O)O)C(=O)NCC(=O)N[C@@H](Cc1c[nH]c2ccccc12)C(=O)N[C@@H](CCSC)C(=O)N[C@@H](CC(=O)O)C(=O)N[C@@H](Cc1ccccc1)C(N)=O` [Peptide E, Glt--Tyr(SO3 H)--Met--Gly--Trp--Met--Asp--Phe--NH2] (HELM PEPTIDE1{[O=C(O)CCCC(=O)[*:2]].[O=C([C@H](Cc1ccc(OS(=O)(=O)O)cc1)N[*:1])[*:2]].M.G.W.M.D.F.[am]}$$$$V2.0), for which the “ED50, inhibition of FR20 responding” value in the series with male Wister rats [5] was 0.004 mg/kg.

Regarding `CSCC[C@H](NC(=O)[C@H](Cc1ccc(OS(=O)(=O)O)cc1)NC(=O)[C@H](CC(=O)O)NC(=O)[C@@H]1CCC(=O)N1)C(=O)NCC(=O)N[C@@H](Cc1c[nH]c2ccccc12)C(=O)N[C@@H](CCSC)C(=O)N[C@@H](CC(=O)O)C(=O)N[C@@H](Cc1ccccc1)C(N)=O` [Peptide B, pGlu--Asp--Tyr(SO3 H)--Met--Gly--Trp--Met--Asp--Phe--NH2], in the series on male Wister rats [1], the “Increase of DOPAC content in hypothalamus” value was “about 60%”; the “Influence on content of metabolite (DOPAC, HVA, 5-HIAA) in frontal cortex, limbic forebrain, and striatum” value is “Neither of peptide A and peptide B was found to influence”. In addition, in the series on Male ddy mice [2], the “Effect on TRH-induced hyperlocomotion (in words)” value is “inhibit the hyperlocomotion induced by TRH”.

As for “Pht--Tyr(SO3 H)--Met--Gly--Trp--Met--Asp--Phe--NH2 [Peptide F]”, the “Average: Mean ± S.E. (total of 7 scores), climbing behavior” value with Male ddy mice [6] (0.1 mg/kg s.c.) came to 7.7 ± 0.6; in the series on Male ddy mice [6] (0.3 mg/kg s.c.) it was 8.0 ± 0.8; in the series on Male ddy mice [6] (1.0 mg/kg s.c.), 6.8 ± 0.8. Also, the “ED50, inhibition of FR20 responding” value in the series on male Wister rats [5] was 0.0167 mg/kg. The “ED50, inhibition of methylphenidate-induced hyperlocomotion” value with Male ICR mice was found to be 0.2513 mg/kg.
